Experimental data: patent US20130324576A1, “THERAPEUTIC COMPOUNDS” (Takeda Pharmaceutical Company Limited, priority 2012, published 2013)

The compounds below were run against T1, human PKR1 receptors (Homo sapiens, UniProt Q8TCW9) (assay: PKR1 antagonist assay: block of PK1-mediated intracellular calcium release (FLIPR Tetra, Calcium 5 dye)). Settings: RBL2H3 cells expressing human PKR1; 10 min pre-incubation, stimulation with PK1 at EC80; calcium fluorescence.
T1 construct: expressed in transfected cells; host or cells: RBL2H3 cells (rat basophilic leukaemia line) expressing human PKR1
Format: cell-based
Description: Prokineticin receptor 1 (PKR1) antagonists may be functionally assessed by measurement of change in intracellular calcium levels induced by Gq mediated increase in inositol triphosphate (IP3) levels. The ability of a compound to block the intracellular release of calcium mediated by PK1 in RBL2H3 cells expressing human PKR1 receptors is determined as a measure of the compound's antagonist activity in vitro.
Approximately 10,000 cells per assay well are seeded in normal culture medium in a 384 well plate (Corning). Twenty-four hours after seeding, the cells are loaded with a calcium sensitive fluorescent dye by replacing the culture medium with assay buffer (1× Hanks buffered saline, 25 mM HEPES, 0.1% w/v fatty acid free BSA (bovine serum albumin), pH 7.4) containing 1 mM probenecid and 1× Calcium 5 Reagent (Molecular Devices). Cells are incubated at 37° C. for 1 hour to allow for dye uptake.
To test for antagonist activity, test compounds at a final concentration range between 0.32 nM-10 μM (diluted in assay buffer) are added to the assay wells and allowed to incubate for 10 minutes prior to stimulation with PK1. After incubation with test compounds the assay plate is placed in a FLIPR Tetra (Molecular Devices) and PK1 (diluted in assay buffer) is added at the determined EC80 concentration (final). Ligand-dependent changes in intracellular calcium levels are determined by measuring changes in fluorescence of the dye at […] following excitation at 485 nm.

T1 sequence (Q8TCW9 whole entry): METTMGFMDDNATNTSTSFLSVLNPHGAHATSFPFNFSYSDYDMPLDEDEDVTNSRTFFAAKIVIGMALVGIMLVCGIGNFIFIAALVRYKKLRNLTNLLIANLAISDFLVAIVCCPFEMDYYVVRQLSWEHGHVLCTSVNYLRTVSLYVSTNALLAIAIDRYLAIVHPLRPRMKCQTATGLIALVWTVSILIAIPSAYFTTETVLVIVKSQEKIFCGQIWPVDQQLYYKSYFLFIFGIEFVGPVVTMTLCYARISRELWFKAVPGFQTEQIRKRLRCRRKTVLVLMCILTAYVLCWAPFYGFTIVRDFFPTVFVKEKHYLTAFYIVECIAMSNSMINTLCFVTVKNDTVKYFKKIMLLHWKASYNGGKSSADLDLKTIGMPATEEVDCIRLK

SMILES | IC50
Cc1n[nH]c(C)c1S(=O)(=O)N1CCC(Oc2ccc3ccccc3c2)CC1 [Example 33, 1-[(3,5-Dimethyl-1H-pyrazol-4-yl)sulfonyl]-4-(naphthalen-2-yloxy)piperidine] | 440 nM
COc1ccc(OC2CCN(S(=O)(=O)c3c(C)nn(C)c3C)CC2)cc1 [Example 18, 4-(4-Methoxyphenoxy)-1-[(1,3,5-trimethyl-1H-pyrazol-4-yl)sulfonyl]piperidine] | 7000 nM
COc1cccc(OC2CCN(S(=O)(=O)c3c(C)nn(C)c3C)CC2)c1 [Example 17, 4-(3-Methoxyphenoxy)-1-[(1,3,5-trimethyl-1H-pyrazol-4-yl)sulfonyl]piperidine] | 3600 nM
Cc1nn(C)c(C)c1S(=O)(=O)N1CCC(Oc2ccc(Cl)cc2)CC1C (stereo not shown) [Example 24, 4-(4-Chlorophenoxy)-2-methyl-1-[(1,3,5-trimethyl-1H-pyrazol-4-yl)sulfonyl]piperidine] | 1500 nM
Cc1n[nH]c(C)c1S(=O)(=O)N1CCC(Oc2ccc(Cl)cc2)CC1 [Example 8, 4-(4-Chlorophenoxy)-1-[(3,5-dimethyl-1H-pyrazol-4-yl)sulfonyl]piperidine] | 1450 nM
Cc1n[nH]c(C)c1S(=O)(=O)N1CCC(Oc2ccc(OC(F)(F)F)cc2)CC1 [Example 32, 1-[(3,5-Dimethyl-1H-pyrazol-4-yl)sulfonyl]-4-[4-(trifluoromethoxy)phenoxy]piperidine] | 3400 nM
CCOC(=O)C1(Cc2ccc(Br)cc2)CCN(S(=O)(=O)c2c(C)nn(C)c2C)CC1 [Example 63, Ethyl 4-(4-bromobenzyl)-1-((1,3,5-trimethyl-1H-pyrazol-4-yl)sulfonyl)piperidine-4-carboxylate] | 640 nM
Cc1nn(C)c(C)c1S(=O)(=O)N1CCC(Cc2ccc(Cl)c(F)c2)CC1 [Example 72, 4-(4-Chloro-3-fluorobenzyl)-1-((1,3,5-trimethyl-1H-pyrazol-4-yl)sulfonyl)piperidine] | 440 nM
CCOC(=O)C1(Cc2ccc(Cl)cc2)CCN(S(=O)(=O)c2c(C)nn(C)c2C)CC1 [Example 61, Ethyl 4-(4-chlorobenzyl)-1-((1,3,5-trimethyl-1H-pyrazol-4-yl)sulfonyl)piperidine-4-carboxylate] | 1080 nM
Cc1ccc(OC2CCN(S(=O)(=O)c3c(C)nn(C)c3C)CC2)cc1 [Example 4, 4-(4-Methylphenoxy)-1-[(1,3,5-trimethyl-1H-pyrazol-4-yl)sulfonyl]piperidine] | 820 nM
Cc1nn(C)c(C)c1S(=O)(=O)N1CCC(O)(Cc2ccc(Cl)cc2Cl)CC1 [Example 59, 4-(2,4-Dichlorobenzyl)-1-((1,3,5-trimethyl-1H-pyrazol-4-yl)sulfonyl)piperidin-4-ol] | 2400 nM
Cc1nn(C)c(C)c1S(=O)(=O)N1CCC(Oc2ccc(Cl)cn2)CC1 [Example 48, 5-Chloro-2-((1-((1,3,5-trimethyl-1H-pyrazol-4-yl)sulfonyl)piperidin-4-yl)oxy)pyridine] | 3800 nM
Cc1nn(C)cc1S(=O)(=O)N1CCC(Oc2ccc(Cl)cc2Cl)CC1 [Example 27, 4-(2,4-Dichlorophenoxy)-1-[(1,3-dimethyl-1H-pyrazol-4-yl)sulfonyl]piperidine] | 5600 nM
COc1cc(Cl)ccc1OC1CCN(S(=O)(=O)c2c(C)n[nH]c2C)CC1 [Example 73, 4-(4-Chloro-2-methoxyphenoxy)-1-((3,5-dimethyl-1H-pyrazol-4-yl)sulfonyl)piperidine] | 200 nM
Cc1nn(C)c(Cl)c1S(=O)(=O)N1CCC(Oc2ccc(Cl)cc2)CC1 [Example 15, 1-[(5-Chloro-1,3-dimethyl-1H-pyrazol-4-yl)sulfonyl]-4-(4-chlorophenoxy)piperidine] | 2900 nM
COc1ccc(OC2CCN(S(=O)(=O)c3c(C)n[nH]c3C)CC2)cc1F [Example 41, 1-(3,5-Dimethyl-1H-pyrazole-4-sulfonyl)-4-(3-fluoro-4-methoxyphenoxy)piperidine] | 5900 nM
Cc1nn(C)c(C)c1S(=O)(=O)N1CCC(Cc2ccc(Cl)cc2)CC1 [Example 55, 4-(4-Chlorobenzyl)-1-((1,3,5-trimethyl-1H-pyrazol-4-yl)sulfonyl)piperidine] | 520 nM
Cc1nn(C)c(C)c1S(=O)(=O)N1CCC(Oc2ccccc2)CC1 [Example 19, 4-Phenoxy-1-[(1,3,5-trimethyl-1H-pyrazol-4-yl)sulfonyl]piperidine] | 5600 nM
Cc1nn(C)c(C)c1S(=O)(=O)N1CCC(Oc2ccc(OC(F)(F)F)cc2)CC1 [Example 3, 4-[4-(Trifluoromethoxy)phenoxy]-1-[(1,3,5-trimethyl-1H-pyrazol-4-yl)sulfonyl]piperidine] | 1400 nM
Cc1n[nH]c(C)c1S(=O)(=O)N1CCC(Oc2ccc(Cl)c(F)c2)CC1 [Example 47, 4-(4-Chloro-3-fluorophenoxy)-1-(3,5-dimethyl-1H-pyrazole-4-sulfonyl)piperidine] | 1900 nM
COc1c(F)cc(OC2CCN(S(=O)(=O)c3c(C)n[nH]c3C)CC2)cc1F [Example 42, 4-(3,5-Difluoro-4-methoxyphenoxy)-1-(3,5-dimethyl-1H-pyrazole-4-sulfonyl)piperidine] | 5900 nM

Other lines, results leading:

IC50 | SMILES
810 nM | Cc1n[nH]c(C)c1S(=O)(=O)N1CCC(F)(Cc2ccc(Cl)cc2F)CC1 [Example 80, 4-(4-Chloro-2-fluorobenzyl)-1-((3,5-dimethyl-1H-pyrazol-4-yl)sulfonyl)-4-fluoropiperidine]
1740 nM | Cc1n[nH]c(C)c1S(=O)(=O)N1CCC(C(O)c2ccc(Cl)cc2)CC1 (stereo not shown) [Example 94]
60 nM | COC(c1ccc(Cl)cc1)C1CCN(S(=O)(=O)c2c(C)nn(C)c2C)CC1 (stereo not shown) [Example 99, 4-((4-Chlorophenyl)(methoxy)methyl)-1-((1,3,5-trimethyl-1H-pyrazol-4-yl)sulfonyl)piperidine]
1860 nM | COCC(c1ccc(Cl)cc1)C1CCN(S(=O)(=O)c2c(C)n[nH]c2C)CC1 (stereo not shown) [Example 109, 4-(1-(4-Chlorophenyl)-2-methoxyethyl)-1-((3,5-dimethyl-1H-pyrazol-4-yl)sulfonyl)piperidine]
140 nM | COc1cc(Cl)ccc1CC1(F)CCN(S(=O)(=O)c2c(C)nn(C)c2C)CC1 [Example 91, 4-(4-Chloro-2-methoxybenzyl)-4-fluoro-1-((1,3,5-trimethyl-1H-pyrazol-4-yl)sulfonyl)piperidine]
80 nM | COC(c1ccc(Cl)cc1)C1CCN(S(=O)(=O)c2c(C)n[nH]c2C)CC1 (stereo not shown) [Example 96, 4-((4-Chlorophenyl)(methoxy)methyl)-1-((3,5-dimethyl-1H-pyrazol-4-yl)sulfonyl)piperidine]
2380 nM | Cc1n[nH]c(C)c1S(=O)(=O)N1CCC(C(C)(O)c2ccc(Cl)cc2)CC1 (stereo not shown) [Example 101, 1-(4-Chlorophenyl)-1-(1-((3,5-dimethyl-1H-pyrazol-4-yl)sulfonyl)piperidin-4-yl)ethanol]
170 nM | COc1cc(Cl)ccc1OC1CCN(S(=O)(=O)c2c(C)nn(C)c2C)CC1 [Example 74, 4-(4-Chloro-2-methoxyphenoxy)-1-((1,3,5-trimethyl-1H-pyrazol-4-yl)sulfonyl)piperidine]
1640 nM | Cc1n[nH]c(C)c1S(=O)(=O)N1CCC(O)(Cc2ccc(Cl)cc2)CC1 [Example 108, 4-(4-Chlorobenzyl)-1-((3,5-dimethyl-1H-pyrazol-4-yl)sulfonyl)piperidin-4-ol]
410 nM | Cc1n[nH]c(C)c1S(=O)(=O)N1CCC(C(F)c2ccc(Cl)cc2)CC1 (stereo not shown) [Example 105, 4-((4-Chlorophenyl)fluoromethyl)-1-((3,5-dimethyl-1H-pyrazol-4-yl)sulfonyl)piperidine]
610 nM | Cc1n[nH]c(C)c1S(=O)(=O)N1CCC(C(C#N)c2ccc(Cl)cc2)CC1 (stereo not shown) [Example 93, 2-(4-Chlorophenyl)-2-(1-((3,5-dimethyl-1H-pyrazol-4-yl)sulfonyl)piperidin-4-yl)acetonitrile]
4600 nM | COc1cc(Cl)ccc1CC1(OC)CCN(S(=O)(=O)c2c(C)n[nH]c2C)CC1 [Example 86, 4-(4-Chloro-2-methoxybenzyl)-1-((3,5-dimethyl-1H-pyrazol-4-yl)sulfonyl)-4-methoxypiperidine]
310 nM | Cc1n[nH]c(C)c1S(=O)(=O)N1CCC(C(F)c2ccc(Cl)cc2)CC1 (single isomer, unassigned) [Example 107, 4-((4-Chlorophenyl)fluoromethyl)-1-((3,5-dimethyl-1H-pyrazol-4-yl)sulfonyl)piperidine]
5880 nM | COc1cc(Cl)ccc1CC1(OC)CCN(S(=O)(=O)c2c(C)nn(C)c2C)CC1 [Example 87, 4-(4-Chloro-2-methoxybenzyl)-4-methoxy-1-((1,3,5-trimethyl-1H-pyrazol-4-yl)sulfonyl)piperidine]
470 nM | Cc1n[nH]c(C)c1S(=O)(=O)N1CCC(C(C)c2ccc(Cl)cc2)CC1 (stereo not shown) [Example 102, 4-(1-(4-Chlorophenyl)ethyl)-1-((3,5-dimethyl-1H-pyrazol-4-yl)sulfonyl)piperidine]
200 nM | COc1cc(Cl)ccc1CC1(O)CCN(S(=O)(=O)c2c(C)nn(C)c2C)CC1 [Example 88, 4-(4-Chloro-2-methoxybenzyl)-1-((1,3,5-trimethyl-1H-pyrazol-4-yl)sulfonyl)piperidin-4-ol]
